Measurements taken from paper PMC3513970 (Oncogene, 2011).
pIC50, pKd: −log10 of the molar value. “And” between values parts separate entries of the source, which are not always exact repeats. Equal values may be shown once.

Experiments:
PKCΙ, α and γ = test: Radioactive in vitro kinase profiling of PKC isoforms on non-specific substrate; type: biochemical; settings: myelin basic protein substrate; maximum 100 μM
[1] = system: K7M2 cells, K12 cells or HUVECs; test: Cell viability assays; type: cell-based; settings: 10 μM; K7M2, K12, HUVEC; data not shown
[2] = system: GFP-expressing K7M2 OS cells in lung slices; test: Ex vivo mouse lung organ culture; type: cell-based; settings: 10 μM, vs DMSO 1%
[3] = mouse
[4] = target: PKCΙ phosphorylation of radixin (Homo sapiens, UniProt P35241); test: In vitro kinase assay: PKCΙ phosphorylation of radixin; type: biochemical; settings: read-out: IC50, PKCΙ phosphorylation of radixin
Chain of PKCΙ phosphorylation of radixin (P35241 whole entry): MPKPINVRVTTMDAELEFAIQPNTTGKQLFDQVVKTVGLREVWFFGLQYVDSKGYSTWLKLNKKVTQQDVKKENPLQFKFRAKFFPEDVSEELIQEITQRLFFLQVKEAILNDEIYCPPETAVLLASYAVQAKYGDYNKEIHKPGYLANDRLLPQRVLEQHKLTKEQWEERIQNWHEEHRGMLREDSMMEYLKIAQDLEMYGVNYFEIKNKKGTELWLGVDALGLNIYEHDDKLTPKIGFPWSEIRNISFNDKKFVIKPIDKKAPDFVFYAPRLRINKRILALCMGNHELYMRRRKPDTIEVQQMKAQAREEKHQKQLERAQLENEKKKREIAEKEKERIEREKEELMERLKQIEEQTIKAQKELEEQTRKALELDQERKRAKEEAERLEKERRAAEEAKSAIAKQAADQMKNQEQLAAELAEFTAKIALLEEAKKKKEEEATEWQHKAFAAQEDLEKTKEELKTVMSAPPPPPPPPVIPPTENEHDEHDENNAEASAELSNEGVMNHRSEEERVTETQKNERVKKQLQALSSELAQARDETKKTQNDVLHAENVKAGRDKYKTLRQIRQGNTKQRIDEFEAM

K7M2 cells [5] = test: Cell migration assay for synergy; type: cell-based, murine; settings: combination of NSC305787 and NSC668394
actin = test: SPR binding to actin; settings: read-out: KD for binding to actin; negative control; data not shown
PKCΙ = target: T1, PKCΙ (Homo sapiens, UniProt P41743); test: Biacore direct interaction with PKCΙ; settings: read-out: KD for binding to PKCΙ, data not shown
T1 sequence (P41743 1-596): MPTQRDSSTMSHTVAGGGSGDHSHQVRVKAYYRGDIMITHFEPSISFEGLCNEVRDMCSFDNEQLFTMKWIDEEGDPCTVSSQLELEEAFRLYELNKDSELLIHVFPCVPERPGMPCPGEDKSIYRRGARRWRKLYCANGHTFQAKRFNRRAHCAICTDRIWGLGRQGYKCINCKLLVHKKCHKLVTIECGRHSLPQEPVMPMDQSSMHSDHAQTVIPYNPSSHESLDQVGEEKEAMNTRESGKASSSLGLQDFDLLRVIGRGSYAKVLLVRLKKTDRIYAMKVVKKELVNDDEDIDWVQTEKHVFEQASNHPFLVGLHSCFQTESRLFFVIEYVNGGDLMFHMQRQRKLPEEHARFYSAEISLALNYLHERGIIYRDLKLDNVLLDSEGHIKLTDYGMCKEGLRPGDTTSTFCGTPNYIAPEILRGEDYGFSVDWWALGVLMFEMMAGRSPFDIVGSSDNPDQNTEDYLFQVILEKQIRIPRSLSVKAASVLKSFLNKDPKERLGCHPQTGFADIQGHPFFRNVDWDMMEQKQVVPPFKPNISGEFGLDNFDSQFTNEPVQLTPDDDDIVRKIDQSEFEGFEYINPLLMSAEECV

recombinant WT ezrin = recombinant WT ezrin (Mus musculus, UniProt P26040); test: SPR direct binding to immobilized recombinant WT ezrin
Chain of recombinant WT ezrin (P26040 whole entry): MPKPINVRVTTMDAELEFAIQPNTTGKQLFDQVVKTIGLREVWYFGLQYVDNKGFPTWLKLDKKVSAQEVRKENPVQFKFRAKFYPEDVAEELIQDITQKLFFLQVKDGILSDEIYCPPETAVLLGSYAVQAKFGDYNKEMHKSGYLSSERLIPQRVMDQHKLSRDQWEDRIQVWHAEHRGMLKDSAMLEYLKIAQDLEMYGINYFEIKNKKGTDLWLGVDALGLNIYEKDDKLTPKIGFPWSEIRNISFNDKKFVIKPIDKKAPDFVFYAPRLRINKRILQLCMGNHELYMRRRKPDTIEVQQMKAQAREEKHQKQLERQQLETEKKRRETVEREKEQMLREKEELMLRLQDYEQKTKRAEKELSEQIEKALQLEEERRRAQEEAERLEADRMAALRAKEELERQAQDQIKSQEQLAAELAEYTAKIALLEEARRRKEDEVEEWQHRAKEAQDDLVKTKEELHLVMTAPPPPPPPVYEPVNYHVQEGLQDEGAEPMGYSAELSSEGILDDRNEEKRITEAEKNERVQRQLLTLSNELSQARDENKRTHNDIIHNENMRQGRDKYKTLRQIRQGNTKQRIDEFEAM

K12 cells = test: Invasion of HUVEC monolayer by K12 cells; type: cell-based, murine; settings: 10 μM
Xenopus embryos = test: Xenopus embryo development assay; type: in vivo
[6] = system: K7M2 lung metastasis in BALB/c mice; test: In vivo experimental lung metastasis model, K7M2 cells; design: species or system mouse
[7] = target: endogenous ezrin in K7M2 OS cells (Mus musculus, UniProt P26040); test: Immunoprecipitation/immunoblotting of endogenous ezrin in K7M2 cells; type: cell-based, murine; settings: 10 μM, 6 h
Chain of endogenous ezrin in K7M2 OS cells (P26040 whole entry): as above

K7M2 cells [8] = test: Invasion of HUVEC monolayer by K7M2 cells; type: cell-based, murine; settings: 10 μM, 5 h, vs DMSO (1%)
zebrafish embryos = test: Zebrafish embryo development assay
[9] = target: PKCΙ phosphorylation of moesin (Homo sapiens, UniProt P26038); test: In vitro kinase assay: PKCΙ phosphorylation of moesin; type: biochemical; settings: read-out: IC50, PKCΙ phosphorylation of moesin
Chain of PKCΙ phosphorylation of moesin (P26038 whole entry): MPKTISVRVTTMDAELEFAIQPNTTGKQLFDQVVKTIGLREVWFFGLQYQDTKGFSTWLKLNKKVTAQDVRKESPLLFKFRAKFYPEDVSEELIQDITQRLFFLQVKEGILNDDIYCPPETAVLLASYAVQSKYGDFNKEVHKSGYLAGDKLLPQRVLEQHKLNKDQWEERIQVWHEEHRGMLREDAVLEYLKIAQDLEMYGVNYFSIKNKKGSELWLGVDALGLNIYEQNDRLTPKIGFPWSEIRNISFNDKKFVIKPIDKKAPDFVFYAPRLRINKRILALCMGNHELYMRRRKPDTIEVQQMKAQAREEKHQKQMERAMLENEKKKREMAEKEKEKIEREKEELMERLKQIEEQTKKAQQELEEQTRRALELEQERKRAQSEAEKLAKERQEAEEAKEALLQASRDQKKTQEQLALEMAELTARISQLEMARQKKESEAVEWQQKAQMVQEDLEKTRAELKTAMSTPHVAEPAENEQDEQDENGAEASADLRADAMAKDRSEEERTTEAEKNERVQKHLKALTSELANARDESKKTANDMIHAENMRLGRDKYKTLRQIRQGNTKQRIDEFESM

[10] = system: MNNG-HOS lung metastasis in SCID/Beige mice; test: In vivo experimental lung metastasis model, MNNG-HOS cells; design: species or system mouse

For `OC(c1cc(C23CC4CC(CC(C4)C2)C3)nc2c(Cl)cc(Cl)cc12)C1CCCCN1` (centres unmarked) [NSC305787], the “inhibition of PKC activity (PKCΙ, α and γ)” value (PKCΙ, α and γ) was “required higher concentration than that required to inhibit ezrin phosphorylation”, the cytotoxicity [1] was “Neither compound was cytotoxic” and the “lung metastases growth of K7M2 cells in organ culture (GFP fluorescence)” value [2] was “significantly inhibited”. For the same compound, the in vivo tolerability [3] was “very well tolerated in vivo without any obvious acute toxicity”, the pIC50 [4] was 4.26 and the “synergy between both compounds in cellular migration” value (K7M2 cells [5]) was “do not show any synergy”. For the same compound, the pKd (actin) was 4.04, the pKd (PKCΙ) was 3.76 and the “binding kinetics on ezrin” value (recombinant WT ezrin; comparison of the two compounds) was “bound to and dissociated faster from ezrin than NSC668394”. The pKd (recombinant WT ezrin; read-out: KD for binding to ezrin, average of five independent experiments) was 5.23 and ~5.00, the “invasion by K12 cells on HUVEC monolayer” value (K12 cells) was “no effect on invasion” and the “Xenopus embryo phenotype at stage 12.5” value (Xenopus embryos; 10 μM) was “gastrulation defects”. For the same compound, the “Xenopus embryo phenotype by stage 37” value (Xenopus embryos; 10 μM) was “delays in development and ventral defects”, the “Xenopus embryo phenotype by stage 50” value (Xenopus embryos; 10 μM) was “short and bent tails and reduced eyes” and the “Xenopus embryo phenotype at high concentration” value (Xenopus embryos; 40 μM) was “severe gastrulation defects and embryonic death”. The “number of GFP-expressing metastatic foci in lung tissues” value ([6]; K7M2-injected mice) was “significant decrease”, the “overall survival vs vehicle group” value ([6]; K7M2, log-rank, P = 0.0337 (NSC305787), P = 0.0524 (NSC668394)) was “significantly different from that of the vehicle-treated group” and the “phospho-ezrin levels in lung–liver–kidney–spleen–skin samples” value ([6]; treated vs control (DMSO) animals) was “did not observe any meaningful differences”. The “T567 phosphorylation of endogenous ezrin” value [7] was “inhibited”, the “actin binding of endogenous ezrin” value [7] was “inhibited” and the cellular ezrin levels [7] was “without altering cellular ezrin levels”. For the same compound, the “invasion by K7M2 cells on HUVEC monolayer” value (K7M2 cells [8]) was “inhibited invasion”, the zebrafish embryo phenotype (zebrafish embryos; 10 μM) was “mimicked the ezrin MO phenotype” and the “embryos with epiboly defects” value (zebrafish embryos; 10 μM, 12 of 81 embryos) was 15%. For the same compound, the “embryos with epiboly defects” value (zebrafish embryos; 20 μM, 71 of 71 embryos) was 100%, the pIC50 [9] was 5.03 and the median survival ([10]; MNNG-HOS tail vein, vehicle 50.5 days) was 49 days. For the same compound, the “number of GFP-expressing metastatic foci in lung tissues” value ([10]; MNNG-HOS-injected mice) was “no differences” and the “survival, control vs treatment groups” value ([10]; MNNG-HOS-injected mice) was “no difference in survival”.
